In PubChem BioAssay (NCI):
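48-hour exposure; five concentrations; linearly interpolated endpoints. At the GI50, growth is halved. TGI is the concentration that stops growth completely.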

What was measured:
Test in all cases: growth of human tumour cells (NCI), 48 h
HCC-2998 colon = tested on: HCC-2998 colon
LOX IMVI melanoma = tested on: LOX IMVI melanoma
OVCAR-3 ovarian = tested on: OVCAR-3 ovarian
SF-268 CNS = tested on: SF-268 CNS
SK-MEL-2 melanoma = tested on: SK-MEL-2 melanoma
SK-OV-3 ovarian = tested on: SK-OV-3 ovarian
CAKI-1 renal = tested on: CAKI-1 renal
MDA-MB-435 = tested on: MDA-MB-435

With `CC(C(=O)c1ccc(Cl)cc1)C1OC(=O)C(Cl)=C1Cl` (stereo not drawn) the TGI (HCC-2998 colon) was 63.5 µM, the TGI (LOX IMVI melanoma) was 47.3 µM and the TGI (OVCAR-3 ovarian) was 71.9 µM. For the same molecule, the TGI (SF-268 CNS) was over 100 µM, the TGI (SK-MEL-2 melanoma) was 48.9 µM and the TGI (SK-OV-3 ovarian) was over 100 µM.
Molecule `CC1CCP(=O)(c2ccccc2)CC1` (stereo not drawn) has a TGI (CAKI-1 renal) of over 100 µM, a TGI (HCC-2998 colon) of over 100 µM and a TGI (LOX IMVI melanoma) of over 100 µM. The TGI (OVCAR-3 ovarian) was over 100 µM, the TGI (SF-268 CNS) was over 100 µM and the TGI (SK-MEL-2 melanoma) was over 100 µM. It also gave a TGI (SK-OV-3 ovarian) of over 100 µM.
`CCc1cccc(C(C)CC)c1NC(=O)C(=O)C(CC(=O)Nc1ccc(Cl)c(Cl)c1)C(=O)OC` (stereo not drawn) showed a TGI (CAKI-1 renal) of over 100 µM, a TGI (HCC-2998 colon) of over 100 µM and a TGI (OVCAR-3 ovarian) of over 100 µM. For the same molecule, the TGI (SF-268 CNS) was over 100 µM, the TGI (SK-MEL-2 melanoma) was over 100 µM and the TGI (SK-OV-3 ovarian) was over 100 µM.
Molecule `CCCCN(CCCC)C(=O)C(=O)C(C)C(=O)CC` (stereo not drawn) has a TGI (CAKI-1 renal) of over 100 µM, a TGI (HCC-2998 colon) of over 100 µM and a TGI (LOX IMVI melanoma) of over 100 µM. For the same molecule, the TGI (OVCAR-3 ovarian) was over 100 µM, the TGI (SF-268 CNS) was over 100 µM and the TGI (SK-MEL-2 melanoma) was over 100 µM. It also gave a TGI (SK-OV-3 ovarian) of over 100 µM.
`Cn1c2ccccc2c(=O)c2c([N+](=O)[O-])ccc(NCCN)c21` gave a TGI (CAKI-1 renal) of 25.9 µM, a TGI (HCC-2998 colon) of 21.8 µM and a TGI (OVCAR-3 ovarian) of 27.2 µM. It also gave a TGI (SF-268 CNS) of 26 µM, a TGI (SK-MEL-2 melanoma) of 36 µM and a TGI (SK-OV-3 ovarian) of 29.4 µM.
Work on `c1cc[c]([Sn]([S]c2cccc3cccnc23)([S]c2cccc3cccnc23)[c]2ccccc2)cc1` yielded a GI50 (CAKI-1 renal) of 0.134 µM, a TGI (CAKI-1 renal) of 0.43 µM and a GI50 (HCC-2998 colon) of 0.17 µM. It also gave a TGI (HCC-2998 colon) of 0.352 µM, a GI50 (LOX IMVI melanoma) of 0.186 µM and a TGI (LOX IMVI melanoma) of 0.402 µM. The GI50 (OVCAR-3 ovarian) was 0.165 µM, the TGI (OVCAR-3 ovarian) was 0.361 µM and the GI50 (SF-268 CNS) was 0.331 µM. The TGI (SF-268 CNS) was 1.48 µM, the GI50 (SK-MEL-2 melanoma) was 0.16 µM and the TGI (SK-MEL-2 melanoma) was 0.538 µM. The GI50 (SK-OV-3 ovarian) was 0.588 µM and the TGI (SK-OV-3 ovarian) was 2.07 µM.
With `CCCCCCCCCCCC(O)=C1C(=O)CC(O)CC1=O` (stereo not drawn) the TGI (CAKI-1 renal) was over 100 µM, the TGI (HCC-2998 colon) was over 100 µM and the TGI (LOX IMVI melanoma) was over 100 µM. The TGI (OVCAR-3 ovarian) was over 100 µM, the TGI (SF-268 CNS) was over 100 µM and the TGI (SK-MEL-2 melanoma) was over 100 µM. It also gave a TGI (SK-OV-3 ovarian) of over 100 µM.
`c1ccc2cc(Cn3c[n+](Cc4ccc5ccccc5c4)c4ccccc43)ccc2c1` showed a GI50 (MDA-MB-435) of 1.37 µM, a TGI (MDA-MB-435) of 2.74 µM and a GI50 (OVCAR-3 ovarian) of 0.927 µM. The TGI (OVCAR-3 ovarian) was 2.22 µM, the GI50 (SF-268 CNS) was 1.31 µM and the TGI (SF-268 CNS) was 2.72 µM. The GI50 (SK-MEL-2 melanoma) was 1.64 µM, the TGI (SK-MEL-2 melanoma) was 3.14 µM and the GI50 (SK-OV-3 ovarian) was 1.67 µM. It also gave a TGI (SK-OV-3 ovarian) of 3.4 µM.
`CC(=O)[C-](C(C)=O)c1ccccc1.CC(=O)[C-](C(C)=O)c1ccccc1.CC[O-].CC[O-].[Ti+4]` gave a GI50 (CAKI-1 renal) of over 100 µM, a TGI (CAKI-1 renal) of over 100 µM and a GI50 (HCC-2998 colon) of over 100 µM. The TGI (HCC-2998 colon) was over 100 µM, the GI50 (LOX IMVI melanoma) was over 100 µM and the TGI (LOX IMVI melanoma) was over 100 µM. For the same molecule, the GI50 (OVCAR-3 ovarian) was over 100 µM, the TGI (OVCAR-3 ovarian) was over 100 µM and the GI50 (SF-268 CNS) was over 100 µM. For the same molecule, the TGI (SF-268 CNS) was over 100 µM, the GI50 (SK-MEL-2 melanoma) was over 100 µM and the TGI (SK-MEL-2 melanoma) was over 100 µM. The GI50 (SK-OV-3 ovarian) was over 100 µM and the TGI (SK-OV-3 ovarian) was over 100 µM.
Work on `CCCCCCCCCCCC(=O)c1c(O)cccc1O` yielded a TGI (CAKI-1 renal) of 56.7 µM, a TGI (HCC-2998 colon) of 34.3 µM and a TGI (LOX IMVI melanoma) of 33.7 µM. It also gave a TGI (OVCAR-3 ovarian) of 31.4 µM, a TGI (SF-268 CNS) of 30.4 µM and a TGI (SK-MEL-2 melanoma) of 30 µM. For the same molecule, the TGI (SK-OV-3 ovarian) was 85.8 µM.
In the case of `COc1ccc(C(=O)C(C(=O)C(=O)Nc2nccs2)c2ccc(OC)cc2)cc1` (stereo not drawn), the TGI (CAKI-1 renal) is reported as over 100 µM, the TGI (LOX IMVI melanoma) is reported as over 100 µM and the TGI (OVCAR-3 ovarian) is reported as over 100 µM. The TGI (SF-268 CNS) was over 100 µM, the TGI (SK-MEL-2 melanoma) was over 100 µM and the TGI (SK-OV-3 ovarian) was over 100 µM.
For `COc1cc(Cl)c2c3c(c(C(=O)c4ccccc4)oc13)CCC2`, the TGI (CAKI-1 renal) was over 100 µM, the TGI (HCC-2998 colon) was over 100 µM and the TGI (LOX IMVI melanoma) was over 100 µM. The TGI (OVCAR-3 ovarian) was over 100 µM and the TGI (SK-OV-3 ovarian) was over 100 µM.
In the case of `CCCCCC(O)(CCCCC)CCCCCCCCC1=C(O)c2[nH]c(=O)ccc2C(=O)C1=O`, the TGI (CAKI-1 renal) is reported as 32 µM, the TGI (HCC-2998 colon) is reported as 27.8 µM and the TGI (LOX IMVI melanoma) is reported as 24 µM. The TGI (OVCAR-3 ovarian) was 16.2 µM, the TGI (SF-268 CNS) was 19.1 µM and the TGI (SK-MEL-2 melanoma) was 13.9 µM. It also gave a TGI (SK-OV-3 ovarian) of 29.6 µM.
In the case of `BrC1=CC=C2NCCCCCCN=C3C=CC(Br)=CC=C3NCCCCCCN=C2C=C1`, the TGI (CAKI-1 renal) is reported as over 25.5 µM, the TGI (HCC-2998 colon) is reported as over 25.5 µM and the TGI (LOX IMVI melanoma) is reported as over 25.5 µM. It also gave a TGI (OVCAR-3 ovarian) of over 25.5 µM, a TGI (SF-268 CNS) of over 25.5 µM and a TGI (SK-MEL-2 melanoma) of over 25.5 µM. The TGI (SK-OV-3 ovarian) was over 25.5 µM.
For `c1cc(-c2cn[nH]c2)cc(-c2cn[nH]c2)c1`, the TGI (CAKI-1 renal) was 83.9 µM, the TGI (HCC-2998 colon) was over 100 µM and the TGI (LOX IMVI melanoma) was over 100 µM. It also gave a TGI (OVCAR-3 ovarian) of over 100 µM, a TGI (SF-268 CNS) of over 100 µM and a TGI (SK-MEL-2 melanoma) of over 100 µM. The TGI (SK-OV-3 ovarian) was 37.5 µM.
`Cc1nc(Nc2ccccc2)sc1C(=O)NNc1ccc([N+](=O)[O-])cc1[N+](=O)[O-]` was tested, and the TGI (CAKI-1 renal) was over 100 µM, the TGI (HCC-2998 colon) was over 100 µM and the TGI (LOX IMVI melanoma) was 87.9 µM. It also gave a TGI (OVCAR-3 ovarian) of over 100 µM, a TGI (SF-268 CNS) of over 100 µM and a TGI (SK-MEL-2 melanoma) of over 100 µM. It also gave a TGI (SK-OV-3 ovarian) of over 100 µM.
`COC(=O)/C(=C/c1ccc(OC)cc1)NC(=O)c1ccccc1` gave a TGI (CAKI-1 renal) of over 100 µM, a TGI (HCC-2998 colon) of over 100 µM and a TGI (LOX IMVI melanoma) of over 100 µM. The TGI (SF-268 CNS) was over 100 µM, the TGI (SK-MEL-2 melanoma) was over 100 µM and the TGI (SK-OV-3 ovarian) was over 100 µM.
`N[C@@H]1CCCC[C@@H]1N.O=C([O-])CN(CP(=O)([O-])[O-])CP(=O)([O-])[O-].[Pt+2]` showed a GI50 (CAKI-1 renal) of over 100 µM, a TGI (CAKI-1 renal) of over 100 µM and a GI50 (HCC-2998 colon) of over 100 µM. It also gave a TGI (HCC-2998 colon) of over 100 µM, a GI50 (LOX IMVI melanoma) of over 100 µM and a TGI (LOX IMVI melanoma) of over 100 µM. The GI50 (OVCAR-3 ovarian) was over 100 µM, the TGI (OVCAR-3 ovarian) was over 100 µM and the GI50 (SF-268 CNS) was over 100 µM. For the same molecule, the TGI (SF-268 CNS) was over 100 µM, the GI50 (SK-MEL-2 melanoma) was over 100 µM and the TGI (SK-MEL-2 melanoma) was over 100 µM. For the same molecule, the GI50 (SK-OV-3 ovarian) was over 100 µM and the TGI (SK-OV-3 ovarian) was over 100 µM.
With `N#CC(C(=N/NC(N)=S)/C(=N/NC(N)=S)C(C#N)c1ccc(Cl)cc1)c1ccc(Cl)cc1` (stereo not drawn) the TGI (HCC-2998 colon) was over 100 µM, the TGI (LOX IMVI melanoma) was over 100 µM and the TGI (OVCAR-3 ovarian) was over 100 µM. The TGI (SF-268 CNS) was over 100 µM, the TGI (SK-MEL-2 melanoma) was over 100 µM and the TGI (SK-OV-3 ovarian) was over 100 µM.
`Cc1cc(N(CCC#N)CCC#N)ccc1N=Nc1cccc(Cl)c1` showed a TGI (CAKI-1 renal) of over 100 µM, a TGI (OVCAR-3 ovarian) of over 100 µM and a TGI (SK-MEL-2 melanoma) of over 100 µM. For the same molecule, the TGI (SK-OV-3 ovarian) was over 100 µM.
`Cc1cccc(C)c1NC(=O)CCC(=O)NC(N)=S` gave a TGI (CAKI-1 renal) of over 100 µM, a TGI (HCC-2998 colon) of over 100 µM and a TGI (LOX IMVI melanoma) of over 100 µM. The TGI (OVCAR-3 ovarian) was over 100 µM and the TGI (SK-OV-3 ovarian) was over 100 µM.
